In assay [1] the test system is P. aeroginosa 0704C0134. The assay is described as follows: Minimal inhibitory concentration on Muller-Hinton agar. As to conditions: P. aeroginosa 0704C0134. Type of assay: cell-based. The method, then: (§1) The essential oils were also tested individually for their minimal inhibitory concentration.
(§2) The solution was first prepared at 40% in DMSO before being placed on the Muller-Hinton agar in the following manner in Table VIII:
(§3) Twenty-two different microorganisms were tested and their minimal inhibitory concentration was tested.

Assay [2] deals with S. aureus 0703H0036. The assay is described as above. Type of assay: cell-based. Here is the method:
as §1, §2, §3

Assay [3] concerns A. baumanni CIP5377. The assay is described as above. It is filed as cell-based. The following applies: A. baumanni CIP5377. The method, then: as §1, §2, §3
Assay [4] relates to S. aureus 0702E0196. The assay is described as above. It is filed as cell-based. Here is the method:
as §1, §2, §3

The subject of assay [5] is P. aeroginosa 0703C0259. The description is as above. Type of assay: cell-based. The method, then:
as §1, §2, §3

For assay [6], the system named is E. cloacae 0705A1743. The description is as above. Type of assay: cell-based. The method, then: as §1, §2, §3
The test system of assay [7] is Salmonell enteritidis 4. The description is as above. Type of assay: cell-based. The following applies: Salmonell enteritidis 4. Here is the method: as §1, §2, §3
In assay [8] the test system is A. baumanni RCH. The assay is described as above. Type of assay: cell-based. The following applies: A. baumanni RCH. Here is the method:
as §1, §2, §3

Assay [9] concerns E. coli ATCC25922. Described as above. It is filed as cell-based. Here is the method:
as §1, §2, §3

Assay [10] concerns K. oxyloca 0705C0187. The assay is described as above. It is filed as cell-based. The following applies: K. oxyloca 0705C0187. Here is the method: as §1, §2, §3
Assay [11] has as its system A. baumanni AYE. The description is as above. Type of assay: cell-based. The following applies: A. baumanni AYE. The method, then:
as §1, §2, §3

For assay [12], the system named is A. baumanni 12. The assay is described as above. Type of assay: cell-based. The following applies: A. baumanni 12. The method, then:
as §1, §2, §3

Assay [13] concerns A. baumanni CIP7034. Described as above. It is filed as cell-based. The following applies: A. baumanni CIP7034. The method, then: as §1, §2, §3
Assay [14] relates to A. baumanni SAN008. The description is as above. It is filed as cell-based. As to conditions: A. baumanni SAN008. Here is the method:
as §1, §2, §3

In assay [15] the test system is S. aureus ATC25923. The assay is described as above. Type of assay: cell-based. The method, then: as §1, §2, §3
In assay [16] the test system is A. baumanni CIP107292. The description is as above. It is filed as cell-based. The following applies: A. baumanni CIP107292; read-out: Minimal Inhibitory Concentration. Here is the method:
as §1, §2, §3

Assay [17] deals with S. aureus 0701A0095. The assay is described as above. It is filed as cell-based. Here is the method:
as §1, §2, §3

Assay [18] concerns P. aeroginosa ATCC27853. Described as above. It is filed as cell-based. As to conditions: P. aeroginosa ATCC27853; read-out: Minimal Inhibitory Concentration. The method, then:
as §1, §2, §3

In assay [19] the test system is E. aerogenes 0705A0867. The description is as above. Type of assay: cell-based. Here is the method:
as §1, §2, §3

The test system of assay [20] is E. coli 0705A0434. The assay is described as above. It is filed as cell-based. The method, then: as §1, §2, §3
Assay [21] has as its system S. aureus 0706C0025. The description is as above. It is filed as cell-based. The following applies: Staphylococcus aureus, 0706C0025, S. aureus 0706C0025; read-out: Minimal Inhibitory Concentration. The method, then:
as §1, §2, §3

For assay [22], the system named is SARM S. aureus ATCC25923. Kind of assay: In vitro emergence of resistance over passages. It is filed as cell-based, Staphylococcus aureus. Here is the method: (§4) Mueller Hinton Agar was used in a standardized disk diffusion procedure for determining the susceptibility of rapidly growing aerobic microorganisms to antimicrobial agents.
(§5) The test to evaluate the increase in resistance was carried out with a concentration of the product of two times the Minimal Inhibitory Concentration (MIC).

Assay [23] has as its system S. aureus ATCC25923. Kind of assay: Minimal inhibitory concentration on Mueller Hinton Agar (Example 13). It is filed as cell-based, Staphylococcus aureus. The following applies: Staphlococcus aureus. The method, then:
as §4, §5

Assay [24] concerns SARM S. aureus ATCC25923. Described as above. Type of assay: cell-based, Staphylococcus aureus. As to conditions: Staphylococcus aureus. The method, then:
as §4, §5

Setting [25] is: read-out: Minimal Inhibitory Concentration.

In brackets after ≈: the same amount, converted by molar mass. Like-named read-outs stand apart in the source and are kept apart here.

With `C=CCc1ccc(O)c(OC)c1` [eugenol], the “Minimal Inhibitory Concentration” value in assay [1] came to 2 mg/mL; in assay [2] (S. aureus 0703H0036), 1.5 mg/mL; in assay [3], 1 mg/mL; in assay [4] (S. aureus 0702E0196), 1.5 mg/mL; in [5] it was 5 mg/mL; in [6] (E. cloacae 0705A1743), 1.5 mg/mL. Besides, the “Minimal Inhibitory Concentration” value was determined as 1.5 mg/mL in [7]; 1 mg/mL in assay [8]; 1.5 mg/mL in assay [9] (E. coli ATCC25922); 1.5 mg/mL in [10]; 1 mg/mL in assay [11]; 1.5 mg/mL in assay [12]. For the same compound, the “Minimal Inhibitory Concentration” value in [13], in [14], in assay [15] (S. aureus ATC25923), in [17] (S. aureus 0701A0095), in assay [19] (E. aerogenes 0705A0867) and in [20] (E. coli 0705A0434) was 1.5 mg/mL in each case. Moreover, the MIC was 1500 µg/mL (≈ 9.13 mM) in [1] (setting [25]); 1000 µg/mL (≈ 6.09 mM) in assay [2] (Staphylococcus aureus, 0703H0036, S. aureus 0703H0036, read-out: Minimal Inhibitory Concentration); 500 µg/mL (≈ 3.04 mM) in [3] (setting [25]); 1000 µg/mL (≈ 6.09 mM) in assay [4] (Staphylococcus aureus, 0702E0196, S. aureus 0702E0196, read-out: Minimal Inhibitory Concentration); 2500 µg/mL (≈ 15.2 mM) in [5]; 1000 µg/mL (≈ 6.09 mM) in [6] (Enterobacter cloacae, 0705A1743, E. cloacae 0705A1743, read-out: Minimal Inhibitory Concentration). In addition, the MIC in assay [7] (setting [25]) turned out to be 1000 µg/mL (≈ 6.09 mM); in assay [8] (setting [25]) it was 750 µg/mL (≈ 4.57 mM); in assay [9] (Escherichia coli, ATCC25922, E. coli ATCC25922, read-out: Minimal Inhibitory Concentration), 750 µg/mL (≈ 4.57 mM); in [10] (setting [25]), 1000 µg/mL (≈ 6.09 mM); in [11] (setting [25]) it was 750 µg/mL (≈ 4.57 mM); in assay [12] (setting [25]), 1000 µg/mL (≈ 6.09 mM). For the same compound, the MIC in assay [13] (setting [25]) stood at 1000 µg/mL (≈ 6.09 mM); in assay [14] (setting [25]), 750 µg/mL (≈ 4.57 mM); in [15] (Staphylococcus aureus, ATC25923, S. aureus ATC25923, read-out: Minimal Inhibitory Concentration) it was 750 µg/mL (≈ 4.57 mM); in assay [16] it was 1000 µg/mL (≈ 6.09 mM); in [17] (Staphylococcus aureus, 0701A0095, S. aureus 0701A0095, read-out: Minimal Inhibitory Concentration) it was 750 µg/mL (≈ 4.57 mM); in [18], 7500 µg/mL (≈ 45.7 mM). Moreover, the MIC in assay [19] (Klebsiella aerogenes, 0705A0867, E. aerogenes 0705A0867, read-out: Minimal Inhibitory Concentration) stood at 1000 µg/mL (≈ 6.09 mM); in assay [20] (Escherichia coli, 0705A0434, E. coli 0705A0434, read-out: Minimal Inhibitory Concentration) it was 1000 µg/mL (≈ 6.09 mM); in assay [21], 1000 µg/mL (≈ 6.09 mM).
Turning to `CO[C@H]1/C=C/O[C@@]2(C)Oc3c(C)c(O)c4c(O)c(c(/C=N/N5CCN(C)CC5)c(O)c4c3C2=O)NC(=O)/C(C)=C\C=C\[C@H](C)[C@H](O)[C@@H](C)[C@@H](O)[C@@H](C)[C@H](OC(C)=O)[C@@H]1C` [Rifampicin], the “appearance of resistance, passage” value in [22] (Staphylococcus aureus) came out at 6. For the same compound, in [22] (after appearance of resistance), the “concentration at which inhibitory activity reappeared” value is recorded as 0.38 ml/I and the “times the initial minimal inhibitory concentration” value came to 47.5. Besides, the “2 times the minimal inhibitory concentration” value in [23] was 0.16 µg/mL. Moreover, the MIC in [24] (ATCC25923, read-out: Minimal inhibitory concentration) amounted to 0.008 µg/mL (≈ 9.72e-06 mM). For the same compound, the MIC in [24] (ATCC25923, read-out: Minimal inhibitory concentration/4) was 0.002 µg/mL (≈ 2.43e-06 mM).
